Values of other authors, collected in patent publication US20240050388A1 (BioLink Life Sciences, Inc., priority 2022, published 2024).

Conditions: oral

Q: For `CC(=O)[O-].CC(=O)[O-].[Ca+2]` [calcium acetate], which “In vivo phosphate binding” value is on record?
A: The value was “essentially quantitative”.
